Laboratory results taken from patent US20040072871A1, “Novel thiophene derivatives, their process of preparation and the pharmaceutical compositions which comprise them” (priority 2002, published 2004).

Legend:
MMP-12 = MMP-12 (Homo sapiens, UniProt P39900); test: In vitro inhibition of proteolysis of fluorogenic peptide substrate FP-1 by MMP-12; type: biochemical; details: substrate FP-1 10 μM, 20 minutes at ambient temperature, compounds tested 0.3 to 30 μM
Experimental: (§1) The inhibitory activity of the compounds of formula (I) with regard to metalloproteinase-12 is evaluated by testing the ability of the compounds of the invention to inhibit the proteolysis of a peptide substrate by MMP-12.
(§2) The inhibitory activity of a compound of formula (I) is expressed as IC50 value, which represents the concentration of inhibitor at which a degree of inhibition of the metalloproteinase of 50% is observed.
(§3) The reaction begins with the sequential addition of 41 μl of substrate FP-1 (final concentration of 10 μM) to a buffer solution of 50 mM of Tris-HCl and 10 mM of CaCl2, which comprises 5 mM of hydroxamic acid and 5 μl of the enzyme diluted in a 0.005% Brij-35 buffer solution. The microplates are incubated for 20 minutes at ambient temperature. The compounds of the invention are tested at concentrations varying from 0.3 to 30 μM.
(§4) The measurement of the amount of proteolysis of the peptide substrate is monitored by a measurement of absorbance at 405 nm using a microplate spectrophotometer, at ambient temperature. The IC50 values are calculated from curves in which the percentage of the catalytic activity relative to the control is represented on the […] and the concentration of inhibitor is represented on the Y axis.

MMP-13 = MMP-13 (Homo sapiens, UniProt P45452); test: MMP-12 test adapted to MMP-13; type: biochemical
Experimental: as §1, §2, §3, §4
The test described above for the inhibition of MMP-12 is adapted and used to determine the ability of the compounds of formula (I) to inhibit the metalloproteinases MMP-1, MMP-2, MMP-3, MMP-7, MMP-9, MMP-13 and MMP-14. […] More specifically, the compounds of the present invention generally show a selectivity with a factor of greater than 50 with respect to the metalloproteinases mentioned above, except towards MMP-13. Thus, the compounds of the present invention also show an inhibitory activity with regard to MMP-13, making it possible to also use the pharmaceutical compositions comprising one or more compounds of the invention in the treatment of pathologies related to activity of MMP-13. Mention may be made, among these pathologies, by way of indication and without implied limitation, of cancer, osetoporosis, osteoarthritis, arthritis, rheumatoid arthritis, atherosclerosis, multiple sclerosis, cardiac insufficiency, asthma and chronic obstructive pulmonary disease.

Chain of MMP-12 (P39900 106-470): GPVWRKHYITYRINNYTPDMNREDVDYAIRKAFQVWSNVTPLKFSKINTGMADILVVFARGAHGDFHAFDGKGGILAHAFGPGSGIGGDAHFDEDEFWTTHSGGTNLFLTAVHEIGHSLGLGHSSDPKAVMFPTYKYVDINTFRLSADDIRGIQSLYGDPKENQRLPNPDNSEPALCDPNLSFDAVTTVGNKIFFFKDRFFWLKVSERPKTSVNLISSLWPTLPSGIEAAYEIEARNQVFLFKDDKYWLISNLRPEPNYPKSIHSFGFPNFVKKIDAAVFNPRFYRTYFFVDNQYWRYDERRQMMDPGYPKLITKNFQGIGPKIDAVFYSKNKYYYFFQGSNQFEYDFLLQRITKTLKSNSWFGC

Q: What does the source list for “2-(4-{[(4-{4-[4-(2-Oxopropyl)-3-hydroxyphenyl]phenyl}thien-2-yl)carboxamido]methyl}phenyl)acetic acid [Example 119]”?
A: IC50 (MMP-12): 0.13 µM; IC50 (MMP-13): 0.78 µM

Q: With “2-[4-({[4-(4′-Benzoyl-4-biphenyl)thien-2-yl]carboxamido}-methyl)phenyl]acetic acid [Example 107]” as the compound, how does the IC50 (MMP-12) read?
A: 0.05 µM

Q: Which IC50 (MMP-12) does the source give for “3-[4-({[4-(4-Trifluoromethoxyphenyl)thien-2-yl]carboxamido}-methyl)phenyl]propanoic acid [Example 63]” here?
A: 0.49 µM

Q: What about the IC50 (MMP-13) of the same compound?
A: 3.8 µM

Q: With `O=C(O)CC[C@@H]1CCC[C@@H](NC(=O)c2cc(-c3ccc(OC(F)(F)F)cc3)cs2)C1` (relative stereo) [Example 125, trans-3-(3-{[4-(4-Trifluoromethoxyphenyl)thien-2-yl]-carboxamido}cyclohexyl)propanoic acid] as the compound, how does the IC50 (MMP-12) read?
A: 0.32 µM

Q: What about the IC50 (MMP-13) of the same compound?
A: 3.95 µM

Q: For `O=C(NCCN1CCOCC1)c1cc(-c2ccc(-c3ccccc3)cc2)cs1` [Example 2, 4-(4-Biphenyl)-N-(2-morpholin-4-ylethyl)thiophene-2carboxamide], which IC50 (MMP-12) is on record?
A: 0.35 µM

Q: What about the IC50 (MMP-13) of the same compound?
A: 30 µM

Q: How did the IC50 (MMP-12) turn out when `O=C(NCCN1CCOCC1)c1cc(-c2ccc(-c3ccncc3)cc2)cs1` [Example 9, 4-[4-(Pyridin-4-yl)phenyl]-N-(2-morpholin-4-ylethyl)thiophene-2-carboxamide] was run?
A: 0.105 µM

Q: What about the IC50 (MMP-13) of the same compound?
A: 1.5 µM

Q: Which IC50 (MMP-12) does the source give for `O=C(NCCN1CCOCC1)c1cc(-c2ccc(-c3cccnc3)cc2)cs1` [Example 11, 4-[4-(Pyridin-3yl)phenyl]-N-(2-morpholin-4-ylethyl)thiophene-2-carboxamide] here?
A: 0.91 µM

Q: What about the IC50 (MMP-13) of the same compound?
A: 4.8 µM

Q: `O=C(NCCN1CCOCC1)c1cc(-c2ccc(N3CCCC3)cc2)cs1` [Example 14, 4-[4-(Pyrrolidin-1-yl)phenyl]-N-(2-morpholin-4-ylethyl)thiophene-2-carboxamide] was tested. Which IC50 (MMP-12) did it give?
A: 0.86 µM

Q: What about the IC50 (MMP-13) of the same compound?
A: 2.08 µM

Q: For `O=C(NCCN1CCOCC1)c1cc(-c2ccc(C3CCCCC3)cc2)cs1` [Example 21, 4-[4-(Cyclohexyl)phenyl]-N-(2-morpholin-4-ylethyl)thiophene-2-carboxamide], which IC50 (MMP-12) is on record?
A: 0.46 µM

Q: What about the IC50 (MMP-13) of the same compound?
A: 11 µM

Q: What does the source list for `Cn1ccc(-c2ccc(-c3csc(C(=O)NCCN4CCOCC4)c3)cc2)n1` [Example 22, 4-[4-(1-Methyl-1H-pyrazol-3-yl)phenyl]-N-(2-morpholin-4-ylethyl)thiophene-2-carboxamide]?
A: IC50 (MMP-12): 0.915 µM; IC50 (MMP-13): 11.6 µM

Q: With `O=C(O)CCc1ccc(NC(=O)c2cc(-c3ccc(OC(F)(F)F)cc3)cs2)nc1` [Example 27] as the compound, how does the IC50 (MMP-12) read?
A: 0.845 µM

Q: What about the IC50 (MMP-13) of the same compound?
A: 6.1 µM

Q: `O=C(NC[C@H]1CC[C@H](C(=O)O)CC1)c1cc(-c2ccc(OC(F)(F)F)cc2)cs1` [Example 35, trans-4-({[4-(4-Trifluoromethoxyphenyl)thien-2-yl]-carboxamido}methyl)cyclohexanecarboxylic acid] was tested. Which IC50 (MMP-12) did it give?
A: 0.405 µM

Q: What about the IC50 (MMP-13) of the same compound?
A: 3.45 µM

Q: For `O=C(O)Cc1ccc(CNC(=O)c2cc(-c3ccc(OC(F)(F)F)cc3)cs2)cc1` [Example 37, 2-[4-({[4-(4-Trifluoromethoxyphenyl)thien-2-yl]carboxamido}-methyl)phenyl]acetic acid], which IC50 (MMP-12) is on record?
A: 0.427 µM

Q: And the IC50 (MMP-13)?
A: 4.53 µM

Q: With `CCC(=O)c1ccc(-c2ccc(-c3csc(C(=O)NCc4ccc(CC(=O)O)cc4)c3)cc2)cc1` [Example 103, 2-[4-({[4-(4′-Propionyl-4-biphenyl)thien-2-yl]carboxamido}-methyl)phenyl]acetic acid] as the compound, how does the IC50 (MMP-12) read?
A: 0.05 µM

Q: For `O=C(O)Cc1ccc(CNC(=O)c2cc(-c3ccc(-c4ccc(C(=O)C5CC5)cc4)cc3)cs2)cc1` [Example 105, 2-[4-({[4-(4′-Cyclopropylcarbonyl-4-biphenyl)thien-2-yl]-carboxamido}methyl)phenyl]acetic acid], which IC50 (MMP-12) is on record?
A: 0.05 µM

Q: How did the IC50 (MMP-12) turn out when `CC(=O)c1ccc(-c2ccc(-c3csc(C(=O)NCc4ccc(CC(=O)O)cc4)c3)cc2)cc1O` [Example 113] was run?
A: 0.14 µM

Q: For `O=C(NC1CCCCC1CO)c1cc(-c2ccc(OC(F)(F)F)cc2)cs1` (centres unmarked) [Example 121, N-[2-(Hydroxymethyl)cyclohexyl]-4-(4-trifluoromethoxyphenyl)-thiophene-2-carboxamide], which IC50 (MMP-12) is on record?
A: 0.72 µM
